Results on 14 compounds are retold here after patent US6800641B2, “Antipsychotic aminomethyl derivatives of 7,8-dihydro-3H-6,9-dioxa-2,3-diaza-cyclopenta[a]naphthalene” (Wyeth, priority 2001, dated 2004).

Counter-ions that a name gives are not always drawn.

System in the first data set: not given
Experiment: not given
Consider `c1ccc(CNC[C@H]2COc3ccc4[nH]ncc4c3O2)cc1` (as salt: fumarate) (hydrate or solvate) [Example 1], for which the melting point lay in the range of 194 to 195.7 °C.
Take `c1ccc(CCCCNC[C@H]2COc3ccc4[nH]ncc4c3O2)cc1` (as salt: hydrochloride) (hydrate or solvate) [Example 2]: the melting point was determined as 104 °C.
The same measure, in the same setting: the same measure for `c1cc2[nH]ncc2c2c1OCC(CNCC13CC4CC(CC(C4)C1)C3)O2` (centres unmarked) (as salt: hydrochloride) [Example 3, Adamantan-1-ylmethyl-(-7,8-dihydro-3H-6,9-dioxa-2,3-diaza-cyclopenta[a]naphthalen-8-ylmethyl)-amine]: above 300 °C; for `c1ccc2c(c1)CCN(CC1COc3ccc4[nH]ncc4c3O1)C2` (centres unmarked) (as salt: hydrochloride) [Example 5, 8-(3,4-Dihydro-1H-isoquinolin-2-ylmethyl)-7,8-dihydro-3H-6,9-dioxa-2,3-diaza-cyclopenta[a]naphthalene]: 170 to 172 °C.
Still for that read-out and setting: the same measure for `C1=C(c2c[nH]c3ccccc23)CCN(CC2COc3ccc4[nH]ncc4c3O2)C1` (centres unmarked) (as salt: hydrochloride) [Example 6, 8-[4-(1H-indol-3-yl)-3,6-dihydro-2H-pyridin-1-ylmethyl]-7,8-dihydro-3H-6,9-dioxa-2,3-diaza-cyclopenta[a]naphthalene]: 190 °C; for `Fc1ccc2[nH]cc(CC3CCN(CC4COc5ccc6[nH]ncc6c5O4)CC3)c2c1` (centres unmarked) (as salt: hydrochloride) [Example 7, 8-[4-(5-Fluoro-1H-indol-3-ylmethyl)-piperidin-1-ylmethyl]-7,8-dihydro-3H-6,9-dioxa-2,3-diaza-cyclopenta[a]naphthalene]: 165 °C.
Same read-out and setting: the result for `c1ccc2c(CCCNCC3COc4ccc5[nH]ncc5c4O3)c[nH]c2c1` (centres unmarked) (as salt: oxalate) [Example 4, (7,8-Dihydro-3H-6,9-dioxa-2,3-diaza-cyclopenta[a]naphthalen-8-ylmethyl)-[3-(1H-indol-3-yl)-propyl]-amine] reads 138 to 142 °C.

The target of the next data set is T1, dopamine D2 receptor (Rattus norvegicus, UniProt P61169).
T1 construct: from tissue; host or cells: rat striatal brain tissue homogenate
T1 sequence (P61169 whole entry): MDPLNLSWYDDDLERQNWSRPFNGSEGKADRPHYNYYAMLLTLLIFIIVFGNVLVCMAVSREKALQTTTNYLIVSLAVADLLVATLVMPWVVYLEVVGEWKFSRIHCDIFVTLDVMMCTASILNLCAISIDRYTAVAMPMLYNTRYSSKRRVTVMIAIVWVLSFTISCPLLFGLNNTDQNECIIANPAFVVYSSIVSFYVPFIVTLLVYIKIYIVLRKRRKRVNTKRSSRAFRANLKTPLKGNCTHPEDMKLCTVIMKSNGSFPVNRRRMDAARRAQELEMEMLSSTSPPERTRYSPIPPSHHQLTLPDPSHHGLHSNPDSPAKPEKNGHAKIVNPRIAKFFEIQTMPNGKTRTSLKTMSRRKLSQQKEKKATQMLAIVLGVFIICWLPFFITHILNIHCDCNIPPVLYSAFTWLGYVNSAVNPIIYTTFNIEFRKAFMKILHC
In words: Dopamine D2 receptor affinity, 3H-quinpirole binding in homogenized rat striatal brain tissue. The method, then:
Affinity for the dopamine D2 receptor was established by a modification of the standard experimental test procedure of Seemen and Schaus, European Journal of Pharmacology 203: 105-109, 1991, wherein homogenized rat striatal brain tissue is incubated with ^3H-quinpirole and various concentrations of test compound, filtered and washed and counted in a Betaplate scintillation counter.
Compound `c1ccc(CNC[C@H]2COc3ccc4[nH]ncc4c3O2)cc1` [Example 1] had an IC50 of 0.45 nM.
On the same count and under the same terms, the same measure for `c1ccc(CCCCNC[C@H]2COc3ccc4[nH]ncc4c3O2)cc1` [Example 2]: 0.29 nM; for `c1cc2[nH]ncc2c2c1OCC(CNCC13CC4CC(CC(C4)C1)C3)O2` (centres unmarked) [Example 3, Adamantan-1-ylmethyl-(-7,8-dihydro-3H-6,9-dioxa-2,3-diaza-cyclopenta[a]naphthalen-8-ylmethyl)-amine]: 0.1 nM; for `c1ccc2c(CCCNCC3COc4ccc5[nH]ncc5c4O3)c[nH]c2c1` (centres unmarked) [Example 4, (7,8-Dihydro-3H-6,9-dioxa-2,3-diaza-cyclopenta[a]naphthalen-8-ylmethyl)-[3-(1H-indol-3-yl)-propyl]-amine]: 0.17 nM.
As for `c1ccc2c(c1)CCN(CC1COc3ccc4[nH]ncc4c3O1)C2` (centres unmarked) [Example 5, 8-(3,4-Dihydro-1H-isoquinolin-2-ylmethyl)-7,8-dihydro-3H-6,9-dioxa-2,3-diaza-cyclopenta[a]naphthalene], the 50% inhibitory concentration (IC50) was found to be 1.1 nM.
Same read-out and setting: the result for `C1=C(c2c[nH]c3ccccc23)CCN(CC2COc3ccc4[nH]ncc4c3O2)C1` (centres unmarked) [Example 6, 8-[4-(1H-indol-3-yl)-3,6-dihydro-2H-pyridin-1-ylmethyl]-7,8-dihydro-3H-6,9-dioxa-2,3-diaza-cyclopenta[a]naphthalene] reads 4.5 nM; that for `Fc1ccc2[nH]cc(CC3CCN(CC4COc5ccc6[nH]ncc6c5O4)CC3)c2c1` (centres unmarked) [Example 7, 8-[4-(5-Fluoro-1H-indol-3-ylmethyl)-piperidin-1-ylmethyl]-7,8-dihydro-3H-6,9-dioxa-2,3-diaza-cyclopenta[a]naphthalene], 3.4 nM.

A word on the melting point: it is the temperature, or range, at which the solid turns liquid. For orientation: IC50 means the concentration that gives 50% inhibition. Low values mean higher potency, high ones lower potency.
